Assay results published in patent publication US7351728B2, “Oxazolyl-aryloxyacetic acid derivatives and their use as PPAR agonists” (Eli Lilly and Company, priority 2003, dated 2008).

Experiments:
HuapoAI transgenic mice = experiment: Evaluation of triglyceride and cholesterol level in HuapoAI transgenic mice; assay type: in vivo; settings: Mus musculus, 168 h, 30 mg/kg daily oral gavage 7 days; for change in vivo at 30 mg/kg: percent increase in FPLC HDLc area under the curve; for inhibition in vivo at 30 mg/kg: serum, male human apoAI transgenic mice, read-out: % Triglyceride Reduction
Description: Five to six week old male mice, transgenic for human apoAI [C57Bl/6-tgn(apoa1)lrub, Jackson Laboratory, Bar Harbor, Me.] were housed five per cage (10″×20″×8″ with aspen chip bedding) with food (Purina 5001) and water available at all times. After an acclimation period of 2 weeks, animals were individually identified by ear notches, weighed, and assigned to groups based on body weight. Beginning the following morning, mice were dosed daily by oral gavage for 7 days using a 20 gauge, 1½″ curved disposable feeding needle (Popper & Sons). Treatments were test compounds (30 mg/kg), a positive control (fenofibrate, 100 mg/kg) or vehicle [1% carboxymethylcellulose (w/v)/0.25% Tween80 (w/v); 0.2 ml/mouse]. Prior to termination on day 7, mice were weighed and dosed. Three hours after dosing, animals were anesthetized by inhalation of isoflurane (2-4%; Abbott Laboratories, Chicago, Ill.) and blood obtained via cardiac puncture (0.7-1.0 ml). Whole blood was transferred to serum separator tubes (Vacutainer SST), chilled on ice, and permitted to clot. Serum was obtained after centrifugation at 4° C. and frozen until analysis for triglycerides, total cholesterol, compound levels, and serum lipoprotein profile by fast protein liquid chromatography (FPLC) coupled to an inline detection system. After sacrifice by cervical dislocation, the liver, heart and epididymal fat pads were excised and weighed.
The animals dosed with vehicle had average triglycerides values of 60-80 mg/dl, which were reduced by the positive control fenofibrate (33-58 mg/dl with a mean reduction of 37%). The animals dosed with vehicle had average total serum cholesterol values of 140-180 mg/dl, which were increased by fenofibrate (190-280 mg/dl, with a mean elevation of 41%). […] Fenofibrate increased the amount of HDLc (68-96 v-sec with a mean percent increase of 48%).
Glucose was measured colorimetrically using commercially purchased reagents (Sigma #315-500). According to the manufacturers, the procedures were modified from published work (McGowan, M. W., Artiss, J. D., Strandbergh, D. R. & Zak, B. Clin Chem, 20:470-5 (1974) and Keston, A. Specific colorimetric enzymatic analytical reagents for glucose. Abstract of papers 129th Meeting ACS, 31C (1956).); and depend on the release of a mole of hydrogen peroxide for each mole of analyte, coupled with a color reaction first described by Trinder (Trinder, P. Determination of glucose in blood using glucose oxidase with an alternative oxygen acceptor. Ann Clin Biochem, 6:24 (1969)). The absorbance of the dye produced is linearly related to the analyte in the sample. The assays were further modified in our laboratory for use in a 96 well format. Standards (Sigma #339-11, Sigma #16-11, and Sigma #CC0534 for glucose triglycerides and total cholesterol, respectively), quality control plasma (Sigma # A2034), and samples (2 or 5 μl/well) were measured in duplicate using 200 μl of reagent. An additional aliquot of sample, pipetted to a third well and diluted in 200 μl water, provided a blank for each specimen. Plates were incubated at room temperature (18, 15, and 10 minutes for glucose, triglycerides and total cholesterol, respectively) on a plate shaker (DPC Micormix 5) and absorbance read at 500 nm (glucose and total cholesterol) or 540 nm (triglycerides) on a plate reader (Wallac Victor 1420). Sample absorbances were compared to a standard curve (100-800, 10-500, and 100-400 mg/dl for glucose, triglycerides and total cholesterol, respectively). Values for the quality control sample were always within the expected range and the coefficient of variation for samples was below 10%. All samples from an experiment were assayed at the same time to minimize inter-assay variability.
Serum lipoproteins were separated and cholesterol quantitated with an in-line detection system. Sample was applied to a Superose® 6 HR 10/30 size exclusion column (Amersham Pharmacia Biotech) and eluted with phosphate buffered saline-EDTA at 0.5 ml/min. […]

huPPARα = experiment: Cotransfection assay in CV-1 cells, luciferase reporter (GAL4 chimeric system); assay type: cell-based, human; settings: cotransfection efficacy relative to PPARα agonist reference molecule
Description: DNA-dependent binding (ABCD binding) was carried out using SPA technology with PPAR receptors. Tritium-labeled PPARα and PPARγ agonists were used as radioligands for generating displacement curves and IC50 values with compounds of the invention. Cotransfection assays were carried out in CV-1 cells. The reporter plasmid contained an acylCoA oxidase (AOX) PPRE and TK promoter upstream of the luciferase reporter cDNA. Appropriate PPARs and RXRα were constitutively expressed using plasmids containing the CMV promoter. […] In order to eliminate such interference, a GAL4 chimeric system was used in which the DNA binding domain of the transfected PPAR was replaced by that of GAL4, and the GAL4 response element was utilized in place of the AOX PPRE. Cotransfection efficacy was determined relative to PPARα agonist and PPARγ agonist reference molecules. Efficacies were determined by computer fit to a concentration-response curve, or in some cases at a single high concentration of agonist (10 μM). For binding or cotransfection studies with receptors other than PPARs, similar assays were carried out using appropriate ligands, receptors, reporter constructs, etc., for that particular receptor.
These studies were carried out to evaluate the ability of compounds of the invention to bind to and/or activate various nuclear transcription factors, particularly huPPARα (“hu” indicates “human”) and huPPARγ. These studies provide in vitro data concerning efficacy and selectivity of compounds of the invention. Furthermore, binding and cotransfection data for compounds of the invention were compared with corresponding data for marketed compounds that act on either huPPARα or huPPARγ.
Binding and cotransfection data for representative compounds of the invention are compared with corresponding data for reference compounds in Table II.

Cc1oc(-c2ccccc2)nc1CCOc1ccc(OC(C)(C)C(=O)O)cc1 [Example 1, 2-Methyl-2-{4-[2-(5-methyl-2-phenyloxazol-4-yl)ethoxy]phenoxy}propionic acid]
change in vivo at 30 mg/kg (HuapoAI transgenic mice): 77%
inhibition in vivo at 30 mg/kg (HuapoAI transgenic mice): 79.2%
huPPARα CTF Eff. (%) (huPPARα): 72%

Cc1oc(-c2ccccc2)nc1CCOc1ccc(OC(C)(C)C(=O)O)c2ccccc12 [Example 37, 2-Methyl-2-{4-[2-(5-methyl-2-phenyl-oxazol-4-yl)-ethoxy]-naphthalen-1-yloxy}-propionic acid]
change in vivo at 30 mg/kg (HuapoAI transgenic mice): 94%
inhibition in vivo at 30 mg/kg (HuapoAI transgenic mice): 29.9%
huPPARα CTF Eff. (%) (huPPARα): 91%

CCCCc1cc(OC(C)(C)C(=O)O)ccc1OCCc1nc(-c2ccccc2)oc1C [Example 31F, 2-{3-Butyl-4-[2-(5-methyl-2-phenyloxazol-4-yl)ethoxy]phenoxy}-2-methylpropionic acid]
change in vivo at 30 mg/kg (HuapoAI transgenic mice): 79%
inhibition in vivo at 30 mg/kg (HuapoAI transgenic mice): 35.7%
huPPARα CTF Eff. (%) (huPPARα): 70%

Cc1oc(-c2ccccc2)nc1CCOc1ccc(OC(C)(C)C(=O)O)c2c1CCCC2 [Example 38, 2-Methyl-2-{4-[2-(5-methyl-2-phenyl-oxazol-4-yl)-ethoxy]-5,6,7,8-tetrahydro-naphthalen-1-yloxy}-propionic acid]
change in vivo at 30 mg/kg (HuapoAI transgenic mice): 86%
inhibition in vivo at 30 mg/kg (HuapoAI transgenic mice): 39%
huPPARα CTF Eff. (%) (huPPARα): 80%

Cc1oc(-c2cccc(CCc3ccccc3)c2)nc1CCOc1ccc(OC(C)(C)C(=O)O)cc1 [Example 12A, 2-Methyl-2-(4-{2-[5-methyl-2-(3-phenethylphenyl)oxazol-4-yl]ethoxy}phenoxy)-propionic acid]
change in vivo at 30 mg/kg (HuapoAI transgenic mice): 47%
huPPARα CTF Eff. (%) (huPPARα): 74%

Cc1oc(-c2cccc(Br)c2)nc1CCOc1ccc(OC(C)(C)C(=O)O)cc1 [Example 9A, 2-(4-{2-[2-(3-Bromophenyl)-5-methyloxazol-4-yl]ethoxy}phenoxy)-2-methylpropionic acid]
change in vivo at 30 mg/kg (HuapoAI transgenic mice): 118%
inhibition in vivo at 30 mg/kg (HuapoAI transgenic mice): 67.1%
huPPARα CTF Eff. (%) (huPPARα): 82%

Cc1oc(-c2ccccc2)nc1CCOc1ccc(OC(C)(C)C(=O)O)c(CCc2ccccc2)c1 [Example 30J, 2-Methyl-2-{4-[2-(5-methyl-2-phenyloxazol-4-yl)ethoxy]-2-phenethylphenoxy}propionic acid]
change in vivo at 30 mg/kg (HuapoAI transgenic mice): 77%
huPPARα CTF Eff. (%) (huPPARα): 90%

Cc1oc(-c2ccccc2)nc1CCOc1ccc(OC(C)(C)C(=O)O)c(Cc2ccccc2)c1 [Example 32, 2-{2-Benzyl-4-[2-(5-methyl-2-phenyloxazol-4-yl)ethoxy]phenoxy}-2-methylpropionic acid]
change in vivo at 30 mg/kg (HuapoAI transgenic mice): 20%
huPPARα CTF Eff. (%) (huPPARα): 82%

Cc1oc(-c2ccccc2)nc1CCOc1ccc(OC(C)(C)C(=O)O)c(CC(C)C)c1 [Example 30C, 2-{2-Isobutyl-4-[2-(5-methyl-2-phenyloxazol-4-yl)ethoxy]phenoxy}-2-methylpropionic acid]
change in vivo at 30 mg/kg (HuapoAI transgenic mice): 31%
inhibition in vivo at 30 mg/kg (HuapoAI transgenic mice): 6.2%
huPPARα CTF Eff. (%) (huPPARα): 67%

CCCc1cc(OCCc2nc(-c3ccccc3)oc2C)ccc1OCC(=O)O [Example 26, {4-[2-(5-methyl-2-phenyl-oxazol-4-yl)ethoxy]-2-propylphenoxy}acetic acid]
change in vivo at 30 mg/kg (HuapoAI transgenic mice): 19%
inhibition in vivo at 30 mg/kg (HuapoAI transgenic mice): 25.5%
huPPARα CTF Eff. (%) (huPPARα): 35%

CCc1cc(OCCc2nc(-c3ccccc3)oc2C)ccc1OC(C)(C)C(=O)O [Example 30A, 2-{2-Ethyl-4-[2-(5-methyl-2-phenyloxazol-4-yl)ethoxy]phenoxy}2-methylpropionic acid]
change in vivo at 30 mg/kg (HuapoAI transgenic mice): 93%
inhibition in vivo at 30 mg/kg (HuapoAI transgenic mice): 51.8%
huPPARα CTF Eff. (%) (huPPARα): 80%

Cc1oc(-c2ccc(OC3CCCCC3)cc2)nc1CCOc1ccc(OC(C)(C)C(=O)O)cc1 [Example 21, 2-(4-{2-[2-(4-Cyclohexyloxy-phenyl)-5-methyl-oxazol-4-yl]-ethoxy}-phenoxy)-2-methyl-propionic acid]
change in vivo at 30 mg/kg (HuapoAI transgenic mice): 9%
huPPARα CTF Eff. (%) (huPPARα): 78%

CCCc1cc(OCCc2nc(-c3ccccc3)oc2C)ccc1OC(C)(C)C(=O)O [Example 26A, 2-Methyl-2-{4-[2-(5-methyl-2-phenyloxazol-4-yl)ethoxy]-2-propylphenoxy}propionic acid]
change in vivo at 30 mg/kg (HuapoAI transgenic mice): 43%
inhibition in vivo at 30 mg/kg (HuapoAI transgenic mice): 35.9%
huPPARα CTF Eff. (%) (huPPARα): 75%

CCc1ccc(-c2nc(CCOc3ccc(OC(C)(C)C(=O)O)cc3)c(C)o2)cc1 [Example 13, 2-(4-{2-[2-(4-Ethylphenyl)-5-methyloxazol-4-yl]ethoxy}phenoxy)-2-methylpropionic acid]
change in vivo at 30 mg/kg (HuapoAI transgenic mice): 133%
inhibition in vivo at 30 mg/kg (HuapoAI transgenic mice): 44.8%
huPPARα CTF Eff. (%) (huPPARα): 73%

CCc1cccc(-c2nc(CCOc3ccc(OC(C)(C)C(=O)O)cc3)c(C)o2)c1 [Example 12, 2-(4-{2-[2-(3-Ethylphenyl)-5-methyloxazol-4-yl]ethoxy}phenoxy)-2-methylpropionic acid]
change in vivo at 30 mg/kg (HuapoAI transgenic mice): 180%
inhibition in vivo at 30 mg/kg (HuapoAI transgenic mice): 74.3%
huPPARα CTF Eff. (%) (huPPARα): 68%

CCCc1cc(OC(C)(C)C(=O)O)ccc1OCCc1nc(-c2ccccc2)oc1C [Example 27A, 2-Methyl-2-{4-[2-(5-methyl-2-phenyloxazol-4-yl)ethoxy]-3-propylphenoxy}propionic acid]
change in vivo at 30 mg/kg (HuapoAI transgenic mice): 52%
inhibition in vivo at 30 mg/kg (HuapoAI transgenic mice): 29.5%
huPPARα CTF Eff. (%) (huPPARα): 95%

Cc1cc(OCCc2nc(-c3ccccc3)oc2C)ccc1OC(C)(C)C(=O)O [Example 24, 2-Methyl-2-{2-methyl-4-[2-(5-methyl-2-phenyloxazol-4-yl)ethoxy]phenoxy}propionic acid]
change in vivo at 30 mg/kg (HuapoAI transgenic mice): 61%
inhibition in vivo at 30 mg/kg (HuapoAI transgenic mice): 75%
huPPARα CTF Eff. (%) (huPPARα): 73%
